According to PMC9085648, “Synthesis of novel genistein amino acid derivatives and investigation on their interactions with bovine serum albumin by spectroscopy and molecular docking” (RSC Advances, 2018):
Where two headings read alike, the source gives them in different places.

How the values were obtained:
MCF-7 = test: MTT cytotoxicity assay, MCF-7; assay type: cell-based; details: Homo sapiens, MCF7, 48 h, mean ± SD of three experiments, read-out: Cancer cell lines IC50, MCF-7
Method: (§1) All cell lines were purchased from the Cell Bank of Type Culture Collection of Chinese Academy of Sciences (Shanghai, China). MGC-803 was routinely cultured in RPMI-1640 medium containing 10% FBS and 1% penicillin/streptomycin. MCF-7, HCT-116 and Hela were routinely cultured in medium DMEM/high glucose containing 10% FBS and 1% penicillin/streptomycin. All cell lines were incubated in culture at 37 °C in air with 5% CO2 for 24 h.
(§2) All cell lines were plated in 96-well plates, and each well contains 4000 cells in 100 μL culture medium. Then the cells were treated with genistein or its amino acid derivatives dissolved in DMSO at different doses in a CO2 incubator at 37 °C for 48 h, and DMSO was used as vehicle control. After removing the culture medium, 10 μL MTT and 90 μL blank culture medium were added to each well and incubated for additional 4 h at 37 °C. The absorbance was determined by a microplate-reader at 490 nm.

BSA [1] = target: T1, BSA (Bos taurus, UniProt P02769); test: Fluorescence quenching of BSA (Stern-Volmer, double-log, van't Hoff); assay type: binding, bovine; details: for K SV (quenching constant): BSA 1 μM, pH 7.4; for ΔGexp: ΔGexp = ΔH − TΔS; for K q (quenching rate constant): τ0 = 10^−8 s; for Kd: read-out: K b (binding constant) (converted); for ΔH / ΔS: van't Hoff, 298-310 K
T1 construct: purchased Aladdin's Reagent Co., Ltd. (Shanghai, China)
Method: Fluorescence spectra were carried on a F-7000 fluorescence spectrophotometer (Japan) fitted out with a 1.0 cm quartz dish. The excitation wavelength was set at 280 nm with 5/5 nm slit widths, while the emission wavelength ranged from 290 nm to 500 nm at different temperatures. The BSA solution (1 μM) was titrated with genistein and its amino acid derivatives 4a–4d for three times. The final concentrations of genistein and 4a–4d were (0.0, 6.4, 12.8, 19.2, 25.6, 32, 38.4, 44.8, and 51.2) μM.
The Stern–Volmer equation is often applied to reveal the fluorescence quenching mechanism:[19]1 [drawing 1] where F0 and F are the fluorescence intensities of complex […], respectively.[18] [Q] denotes the concentration of quencher. Ksv and Kq are quenching constant and quenching rate constant of BSA, respectively.[20]τ0 is the lifetime of fluorophore in the absence of genistein, 4a–4d and equals to 10^−8 s.[21] […] It can be observed that the Ksv values decreased gradually with rise in temperature in Table 2. Furthermore, Kq values were in the order of 10^12, which were larger than the maximum diffusion collisional rate constant (2.0 × 10^10 M^−1 s^−1).[22]
Double-logarithmic eqn (2) is often used to explore the binding parameters of static quenching, such as binding constant (Kb) and binding sites (n):[23]2 [drawing 2]
To clarify the binding forces between genistein, 4a–4d and BSA, the thermodynamic parameters were studied via the van't Hoff equations:[25]3 [drawing 3] 4 ΔG = −RT ln K = ΔH − TΔSwhere T denotes the experimental temperature, K denotes the binding constant at the corresponding temperature, R is the gas constant.[26] According to Ross and Subramanian's previous research,[27] the characteristic for van der Waals interactions or/and hydrogen bonding is ΔH < 0 and ΔS < 0, for hydrophobic interaction is ΔH > 0 and ΔS > 0, and for electrostatic interactions is ΔH ≈ 0 and ΔS > 0.[28] The calculation results of the thermodynamic parameters were recorded in Table 3.

Hela = test: MTT cytotoxicity assay, Hela; assay type: cell-based; details: Homo sapiens, 48 h, mean ± SD of three experiments, read-out: Cancer cell lines IC50, Hela
Method: as §1, §2

HCT-116 = test: MTT cytotoxicity assay, HCT-116; assay type: cell-based; details: Homo sapiens, 48 h, mean ± SD of three experiments, read-out: Cancer cell lines IC50, HCT-116
Method: as §1, §2

BSA [2] = target: T1, BSA; test: Three-dimensional fluorescence spectroscopy of BSA; assay type: binding, bovine
Method: The 3D fluorescence spectra of genistein and compounds 4a–4d were recorded with scanning excitation wavelength ranged from 200 nm to 300 nm with 10 nm interval, and emission wavelength ranged from 290 nm to 470 nm with 5 nm interval for three times. Other parameters were the same as Section 2.4.1.

MGC-803 = test: MTT cytotoxicity assay, MGC-803; assay type: cell-based; details: Homo sapiens, 48 h, mean ± SD of three experiments, read-out: Cancer cell lines IC50, MGC-803
Method: as §1, §2

[3] = Peak 1, [BSA]:[compound] = 1:3, 298 K
[4] = Peak 2, [BSA]:[compound] = 1:3, 298 K
[5] = Peak a (Rayleigh scattering), [BSA]:[compound] = 1:3, 298 K

T1 sequence (P02769 25-607): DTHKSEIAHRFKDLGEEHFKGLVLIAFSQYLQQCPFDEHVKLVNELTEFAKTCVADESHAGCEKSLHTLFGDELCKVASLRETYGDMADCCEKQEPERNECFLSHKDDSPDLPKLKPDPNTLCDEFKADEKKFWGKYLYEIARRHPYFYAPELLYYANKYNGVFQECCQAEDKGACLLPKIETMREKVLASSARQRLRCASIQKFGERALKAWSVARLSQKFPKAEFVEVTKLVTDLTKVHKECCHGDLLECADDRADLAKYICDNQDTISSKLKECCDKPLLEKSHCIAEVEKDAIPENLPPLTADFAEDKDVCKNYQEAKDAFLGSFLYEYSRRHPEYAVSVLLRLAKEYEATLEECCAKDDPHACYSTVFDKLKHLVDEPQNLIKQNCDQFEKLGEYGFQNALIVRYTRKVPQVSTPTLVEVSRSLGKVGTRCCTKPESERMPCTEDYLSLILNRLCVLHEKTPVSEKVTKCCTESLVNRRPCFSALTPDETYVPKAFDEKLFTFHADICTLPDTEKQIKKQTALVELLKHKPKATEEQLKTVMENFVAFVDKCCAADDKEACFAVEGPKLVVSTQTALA

SMILES | IC50 (MCF-7) [µM] | K SV (quenching constant) (BSA [1]; T 298 K) | ΔGexp (BSA [1]; T 298 K) [kJ/M] | K q (quenching rate constant) (BSA [1]; T 298 K) | Kd (BSA [1]; T 298 K) [µM] | n (binding sites) (BSA [1]; T 306 K) | K SV (quenching constant) (BSA [1]; T 306 K) | ΔGexp (BSA [1]; T 306 K) [kJ/M] | K q (quenching rate constant) (BSA [1]; T 306 K) | Kd (BSA [1]; T 306 K) [µM] | n (binding sites) (BSA [1]; T 310 K) | ΔGexp (BSA [1]; T 310 K) [kJ/M] | Kd (BSA [1]; T 310 K) [µM] | ΔH (BSA [1]) [kJ/M] | ΔS (BSA [1]) [J K^−1 M^−1] | IC50 (Hela) [µM] | IC50 (HCT-116) [µM] | 3D fluorescence intensity (BSA [2]; [3]) [a.u] | 3D fluorescence peak position λex/λem (BSA [2]; [3]) | 3D fluorescence intensity (BSA [2]; [4]) [a.u] | other results
COC(=O)C(NC(=O)COc1cc(O)c2c(=O)c(-c3ccc(O)cc3)coc2c1)C(C)C (stereo not drawn) [4c] | 99.73 ± 0.11 | 6.2575 ± 0.1717 10^4 M^−1 | -41.29 | 6.2575 10^12 M^−1 s^−1 | 0.084 | 1.53 | 5.0010 ± 0.1067 10^4 M^−1 | -37.63 | 5.0010 10^12 M^−1 s^−1 | 0.119 | 1.24 | -35.81 | 2.01 | -177.34 | −456.55 | 82.71 ± 0.15 | 42.64 ± 0.15 | 254.6 | 230/355 | 338.3 | n (binding sites) (BSA [1]; T 298 K): 1.54; K SV (quenching constant) (BSA [1]; T 310 K): 4.8646 ± 0.1370 10^4 M^−1; K q (quenching rate constant) (BSA [1]; T 310 K): 4.8646 10^12 M^−1 s^−1; 3D fluorescence peak position λex/λem (BSA [2]; [4]): 280/355; 3D fluorescence intensity (BSA [2]; [5]): 210.9 a.u; 3D fluorescence peak position λex/λem (BSA [2]; [5]): 290/295; IC50 (MGC-803): 33.53 ± 0.13 µM
COC(=O)CNC(=O)COc1cc(O)c2c(=O)c(-c3ccc(O)cc3)coc2c1 [4a] | > 100 | 9.3690 ± 0.1055 10^4 M^−1 | -49.21 | 9.3690 10^12 M^−1 s^−1 | 0.0023 | 1.72 | 9.0645 ± 0.0720 10^4 M^−1 | -47.21 | 9.0645 10^12 M^−1 s^−1 | 0.00952 | 1.66 | -46.22 | 0.0153 | -123.52 | −249.37 | 66.6 ± 3.6 | 65.3 ± 2.91 | 249.8 | 230/355 | 300.8 | n (binding sites) (BSA [1]; T 298 K): 1.86; K SV (quenching constant) (BSA [1]; T 310 K): 7.7362 ± 0.1223 10^4 M^−1; K q (quenching rate constant) (BSA [1]; T 310 K): 7.7362 10^12 M^−1 s^−1; 3D fluorescence peak position λex/λem (BSA [2]; [4]): 280/355; 3D fluorescence intensity (BSA [2]; [5]): 167.9 a.u; 3D fluorescence peak position λex/λem (BSA [2]; [5]): 290/295; IC50 (MGC-803): 24.4 ± 1.27 µM
COC(=O)C(CC(C)C)NC(=O)COc1cc(O)c2c(=O)c(-c3ccc(O)cc3)coc2c1 (stereo not drawn) [4d] | 47 ± 3.53 | 4.9339 ± 0.0500 10^4 M^−1 | -39.53 | 4.9339 10^12 M^−1 s^−1 | 0.15 | 1.47 | 4.8535 ± 0.0465 10^4 M^−1 | -37.19 | 4.8535 10^12 M^−1 s^−1 | 0.209 | 1.28 | -36.02 | 1.42 | -126.67 | −292.42 | 68.1 ± 1.05 | 92.87 ± 0.04 | 263.8 | 230/355 | 331.4 | n (binding sites) (BSA [1]; T 298 K): 1.50; K SV (quenching constant) (BSA [1]; T 310 K): 4.5804 ± 0.0360 10^4 M^−1; K q (quenching rate constant) (BSA [1]; T 310 K): 4.5804 10^12 M^−1 s^−1; 3D fluorescence peak position λex/λem (BSA [2]; [4]): 280/355; 3D fluorescence intensity (BSA [2]; [5]): 155.5 a.u; 3D fluorescence peak position λex/λem (BSA [2]; [5]): 290/295; IC50 (MGC-803): 35.4 ± 3.72 µM
O=c1c(-c2ccc(O)cc2)coc2cc(O)cc(O)c12 [Genistein] | > 100 | 6.2416 ± 0.0984 10^4 M^−1 | -37.69 | 6.2416 10^12 M^−1 s^−1 | 0.256 | 1.39 | 5.3472 ± 0.1242 10^4 M^−1 | -37.11 | 5.3472 10^12 M^−1 s^−1 | 0.415 | 1.37 | -36.83 | 0.671 | -59.09 | −71.83 | > 100 | > 100 | 259.2 | 230/355 | 333.2 | n (binding sites) (BSA [1]; T 298 K): 1.42; K SV (quenching constant) (BSA [1]; T 310 K): 4.3285 ± 0.1005 10^4 M^−1; K q (quenching rate constant) (BSA [1]; T 310 K): 4.3285 10^12 M^−1 s^−1; 3D fluorescence peak position λex/λem (BSA [2]; [4]): 280/355; 3D fluorescence intensity (BSA [2]; [5]): 159.6 a.u; 3D fluorescence peak position λex/λem (BSA [2]; [5]): 290/295; IC50 (MGC-803): > 100 µM
COC(=O)C(C)NC(=O)COc1cc(O)c2c(=O)c(-c3ccc(O)cc3)coc2c1 (stereo not drawn) [4b] | 21.3 ± 2.24 | 8.0160 ± 0.1379 10^4 M^−1 | -42.01 | 8.0160 10^12 M^−1 s^−1 | 0.0649 | 1.53 | 6.9409 ± 0.0956 10^4 M^−1 | -38.43 | 6.9409 10^12 M^−1 s^−1 | 0.0794 | 1.23 | -36.65 | 1.55 | -175.21 | −446.98 | 90.27 ± 0.47 | > 100 | 199.8 | 230/355 | 242.6 | 3D fluorescence peak position λex/λem (BSA [2]; [4]): 280/355; 3D fluorescence intensity (BSA [2]; [5]): 140.7 a.u; 3D fluorescence peak position λex/λem (BSA [2]; [5]): 290/295; IC50 (MGC-803): 12.08 ± 0.06 µM
